Reference: patent US12564190B2, “Biobased herbicide enhancer agent and method for using the same” (priority 2021, dated 2026)

Tests used:
Type in all cases: in vivo
Lemna minor = assay: Herbicide activity on Lemna minor in vitro, fresh weight reduction after one week; details: fresh weight reduction compared to untreated plants, 7-day exposure, all chemicals 10 mg/L
Method: The experiment was carried out in Lemna minor growing in vitro conditions. Lemna minor (duckweed) was bought in the local market. A stock culture was maintained on modified Hoagland medium in a controlled environment. The pH of the medium was adjusted to 6.0, and the plants were grown under static conditions in a plant growth chamber at 25±2° C., light/dark regime of 16 h/8 h.
For the experiments, fronds free from any visible chlorosis were taken from the stock cultures and exposed to the appropriate treatment. For each treatment, we used six repetitions with three fronds per repetition as the initial frond number. Individual fronds were transferred to a 12 well multiplate containing Hoagland medium (control), Hoagland medium containing polyferulates, herbicides or the combination as shown in Table 9. All chemicals were evaluated at the same concentration (10 mg/L). The multiplate was covered with a transparent cover to prevent evaporation. The herbicide activity was evaluated as fresh weight reduction compared to untreated plants after one week of incubation in the described conditions.

potato plants = assay: Desiccation of potato plants, field plots, visual evaluation 15 days after treatment; details: three herbicides tested
Excerpt: The desiccant was applied by spraying.

Echinochloa colona = assay: Herbicide activity on Echinochloa colona plants, visual evaluation 20 days after treatment; details: E. colona, 20 DAT, application rate 110 g a.i. ha^−1
Excerpt: Echinochloa colona is a cosmopolitan weed common in crops (mainly rice, maize and vegetables), gardens, roadsides, disturbed sites, waste areas and pastures. It also grows along waterways, on the margins of lakes and ponds, in swamps and wetlands, and in other damp habitats. It has the potential to invade natural areas and completely outcompete native vegetation. This weed pose a significant threat to rice productivity globally and are usually reported as noxious weeds in several economically important crops around the world. E. colona has vigorous growth traits and high seed production since each E. colona plant can produce up to 42,000 seeds. The experiment in Echinochloa colona plants was carried out in independent pots and in four replications. […] The products were applied by spraying. The herbicide activity was visually evaluated 20 days after treatment.

For `CCOC1Oc2ccc(OS(C)(=O)=O)cc2C1(C)C` (stereo not shown) [Ethofumesate], the Herbicide activity (Lemna minor) was 0%.

In the case of `COc1cc(/C=C/C(=O)O)ccc1O` [Ferulic acid, (2E)-3-(4-hydroxy-3methoxyphenyl) prop-2-enoic acid], the “Effect in combination with the herbicides tested (synergism or antagonism according to Colby)” value (potato plants) is reported as “antagonist”.

Work on `COC(=O)Nc1cccc(OC(=O)Nc2cccc(C)c2)c1` [Phenmedipham] yielded a Herbicide activity (Lemna minor) of 3%.

For `CCCC(=NOCC(C)Oc1ccc(Cl)cc1)C1=C(O)CC(C2CCCSC2)CC1=O` (stereo not shown) [Profoxydim], the Herbicide activity (Echinochloa colona) was 34 and the Herbicide activity (Lemna minor) was 45%.

`COC(=O)c1cccc(C)c1S(=O)(=O)NC(=O)Nc1nc(OCC(F)(F)F)nc(N(C)C)n1` [Triflusulfuron-methyl] showed a Herbicide activity (Lemna minor) of 34%.

With Diferulic acid the “Effect in combination with the herbicides tested (synergism or antagonism according to Colby)” value (potato plants) was “antagonist”.
